Tested on: mast cells
Assay: Inhibitory effect on histamine release from rat peritoneal mast cells stimulated with compound 48/80 (histamine by HPLC, diazotation method)
Format: cell-based
Details: histamine release induced by compound 48/80, mean of three measurements; for inhibition at 10 µg/mL: sample concentration 10 μg/ml
Excerpt: (1) With regard to the following substances, an inhibitory effect on type I allergic reaction was investigated by investigating an inhibitory effect on histamine release from mast cells. • <1> Adenosine • <2> Guanosine • <3> Cytidine • <4> Uridine • <5> Adenosine monophosphate (AMP) • <6> Adenosine diphosphate (ADP) • <7> Adenosine triphosphate (ATP) • <8> Adenosine derived from Phellinus linteus (described later as Compound A) • <9> N-hydroxy-N-methyl-adenosine derived from Phellinus linteus (described later as Compound B) • <10> A commercially available histamine inhibitor (brand name: Intal, major component: disodium cromoglycate, manufacturer: Fujisawa Pharmaceutical Co., Ltd.)
(a) For a test animal, a male Wister rat (at 6 to 8 weeks of age) was used.
After a rat was sacrificed by exsanguination under anesthesia with ether, 15 ml of Tyrode Buffer was injected into the peritoneal cavity of the rat and intraperitoneal cavity fluid was recovered. Ten ml of Tyrode Buffer was further injected into the peritoneal cavity of the rat. Intraperitoneal cavity fluid was further recovered and combined with the intraperitoneal fluid recovered before. This intraperitoneal fluid was centrifuged at 800 rpm for 10 minutes at 4° C. and the supernatant was removed and filtrated.
Further, cell suspension, to which Tyrode Buffer was added, was centrifuged at 800 rpm for 10 minutes at 4° C., the supernatant was removed and the cells were homogenized. This cell suspension was measured with an erythrocytometer, and prepared to be 8×10^6 cells/ml for use.
The cell suspension (370 μl) dispensed into a 1.2 ml-microtube was pre-incubated in a water bath at 37° C.
Ten minutes later, 20 μl of sample prepared at each concentration was added.
Further, 10 minutes later, 10 μl of compound 48/80 (a mast cell stimulation agent; manufactured by Wako Pure Chemical Industries, Ltd.) (0.5 μg/ml), which is an allergy inducer, was added.
Fifteen minutes later, the reaction was terminated on ice.
Further, to remove the mast cells, centrifugation was carried out at 13,000 rpm for 15 minutes at 4° C. and the supernatant was recovered.
This supernatant was used as a sample for diazotation in HPLC analysis.
An equal amount of 20 mM p-nitroaniline hydrochloric acid solution and 200 mM sodium nitrite aqueous solution were mixed well (diazo reagent).
To 10 μl of the diazo reagent, 20 μl of the foregoing sample for (histamine) diazotation was added and mixed well by using a vortex mixer.
Further, 30 μl of sodium carbonate ethanol solution was added and mixed well by using a vortex mixer.
This solution (20 μl) was used in HPLC analysis.
(c) The analysis of histamine was carried out by the diazotation method (Specific Determination of Histamine in Fish by High-performance Liquid Chromatography after Diazo Coupling: Biosci. Biotech. Biochem. 59 (7) 1208-1210 (1995)).
(4) The results of the inhibitory effects on histamine release from mast cells of a specified concentration of <1> adenosine, <2> guanosine, <3> cytidine, <4> uridine, <5> adenosine monophosphate (AMP), <6> adenosine diphosphate (ADP), <7> adenosine triphosphate (ATP) (<1> to <7> substances were from Wako Pure Chemical Industries, Ltd.), <8> adenosine derived from Phellinus linteus (described later as Compound A), <9> N-hydroxy-N-methyl-adenosine derived from Phellinus linteus (described later as Compound B), and <10> a commercially available histamine inhibitor (brand name: Intal, major component: sodium cromoglycate, manufacturer: Fujisawa Pharmaceutical Co., Ltd.) are shown in Table 2. The inhibition ratios shown in Table 2 are mean values of three measurement values in each case.
The value of inhibition ratio was calculated from the following calculation formula.
Calculation Formula: (1−(peak integral value of sample)/(peak integral value of control))×100

[1] = Rattus norvegicus, Mast cell, sample concentration 5 μg/ml, read-out: Inhibition Ratio (%)
[2] = Rattus norvegicus, Mast cell, read-out: Inhibition Ratio (%)

Structure (SMILES) | inhibition at 5 µg/mL [1] | inhibition at 10 µg/mL [2] | further results
Nc1ncnc2c1ncn2[C@@H]1O[C@H](CO)[C@@H](O)[C@H]1O [Adenosine derived from Phellinus linteus, adenosine] | 41.5% |  | 
Nc1ncnc2c1ncn2[C@@H]1O[C@H](COP(=O)(O)OP(=O)(O)O)[C@@H](O)[C@H]1O [Adenosine diphosphate, adenosine 5′-diphosphate] |  | 47.8% | 
Nc1ncnc2c1ncn2[C@@H]1O[C@H](COP(=O)(O)O)[C@@H](O)[C@H]1O [Adenosine monophosphate, adenosine 5′-monophosphate] |  | 54.9% | 
Nc1ncnc2c1ncn2[C@@H]1O[C@H](COP(=O)(O)OP(=O)(O)OP(=O)(O)O)[C@@H](O)[C@H]1O [Adenosine triphosphate, adenosine 5′-triphosphate] |  | 40% | 
Nc1ncnc2c1ncn2[C@@H]1O[C@H](CO)[C@@H](O)[C@H]1O [Adenosine] |  |  | inhibition at 1 µg/mL (Rattus norvegicus, Mast cell, sample concentration 1 μg/ml, read-out: Inhibition Ratio (%)): 27.5%; inhibition at 20 µg/mL (Rattus norvegicus, Mast cell, sample concentration 20 μg/ml, read-out: Inhibition Ratio (%)): 59.3%; inhibition at 50 µg/mL (Rattus norvegicus, Mast cell, sample concentration 50 μg/ml, read-out: Inhibition Ratio (%)): 74.7%; Inhibition Ratio (%) (sample concentration 5 μg/ml): 43.8%
Nc1ccn([C@@H]2O[C@H](CO)[C@@H](O)[C@H]2O)c(=O)n1 [Cytidine] | 38% |  | 
Nc1nc2c(ncn2[C@@H]2O[C@H](CO)[C@@H](O)[C@H]2O)c(=O)[nH]1 [Guanosine] | 39% |  | 
CN(O)c1ncnc2c1ncn2[C@@H]1O[C@H](CO)[C@@H](O)[C@H]1O [N-hydroxy-N-methyl-adenosine] | 27% |  | 
O=c1ccn([C@@H]2O[C@H](CO)[C@@H](O)[C@H]2O)c(=O)[nH]1 [Uridine] | 34% |  | 
